Tests used:
BRD4 BD2 = target: T1, BRD4 BD2 (Homo sapiens, UniProt O60885); experiment: AlphaScreen binding assay, BRD4 Bromodomain 2
T1 construct: made in house
How it was run: (§1)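 An AlphaScreen competition format was used with His-BRD4 BD1 or BD2 and biotin-H4 K5/8/12/16-acetyl peptide, each at matched final levels of 50 nM (BD1) or 100 nM (BD2). Incubation in HEPES/NaCl buffer with 0.1% BSA and 0.01% Triton X-100 ran ≥1 h before IC50 determination.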

BRD4 BD1 = target: T2, BRD4 BD1 (Homo sapiens, UniProt O60885); experiment: AlphaScreen binding assay, BRD4 Bromodomain 1
T2 construct: made in house
How it was run: as §1

| SMILES | IC50 (BRD4 BD2) [nM] | IC50 (BRD4 BD1) [nM] |
| --- | --- | --- |
| CC(=O)N1c2ccccc2N(C(=O)Cn2cnc3ccccc32)C[C@@H]1C [Example I-766] | > 500 | > 10000 |
| CC(=O)N1c2ccccc2N(C(=O)CN2CCS(=O)(=O)CC2)C[C@@H]1C [Example I-767] | > 500 | > 10000 |
| CC(=O)N1c2ccccc2N(C(=O)c2c(C)noc2C)C[C@@H]1C [Example I-768] | > 500 | > 10000 |
| CC(=O)N1c2ccccc2N(C(=O)Cc2nc(-c3ccccc3)oc2C)C[C@@H]1C [Example I-769] | > 500 | > 10000 |
| CC(=O)N1c2ccccc2N(C(=O)c2cccc3[nH]ccc23)CC1C (stereo not shown) [Example I-770] | > 500 | > 10000 |
| CC(=O)N1c2ccccc2N(C(=O)c2cc3ccccn3n2)C[C@@H]1C [Example I-771] | > 500 | > 10000 |
| CC(=O)N1c2ccccc2N(C(=O)COCC(C)C)C[C@@H]1C [Example I-772] | > 500 | > 10000 |
| CC(=O)N1c2ccccc2N(C(=O)c2cnn3c2OCCC3)C[C@@H]1C [Example I-773] | > 500 | > 10000 |
| CC(=O)N1c2ccccc2N(C(=O)c2cc3n(n2)CCC3)C[C@@H]1C [Example I-774] | > 500 | > 10000 |
| CC(=O)N1c2ccccc2N(C(=O)c2cc3ccncc3s2)C[C@@H]1C [Example I-775] | > 500 | > 10000 |
| CC(=O)N1c2ccccc2N(C(=O)c2ccc3nccn3c2)C[C@@H]1C [Example I-776] | > 500 | > 10000 |
| CC(=O)N1c2ccccc2N(C(=O)c2cc3ccncc3o2)C[C@@H]1C [Example I-777] | > 500 | > 10000 |
| CC(=O)N1c2ccc(-c3ccc(S(C)(=O)=O)cc3)cc2N(C(=O)c2cn3ccncc3n2)C[C@@H]1C [Example I-779] | > 500 | > 10000 |
| CC(=O)N1c2ccc(-c3ccc(S(C)(=O)=O)cc3)cc2N(C(=O)c2csnn2)C[C@@H]1C [Example I-783] | > 500 | 1000 to 10000 |
| CC(=O)N1c2ccc(-c3ccc(S(C)(=O)=O)cc3)cc2N(C(=O)c2nccn2C)C[C@@H]1C [Example I-784] | > 500 | > 10000 |
| CC(=O)N1c2ccc(-c3ccc(S(C)(=O)=O)cc3)cc2N(C(=O)c2cc3cc(OC(F)(F)F)ccc3[nH]2)CC1C (stereo not shown) [Example I-788] | > 500 | > 10000 |
| CC(=O)N1c2ccc(-c3ccc(S(C)(=O)=O)cc3)cc2N(C(=O)c2oc3ccccc3c2-c2ccccc2)C[C@@H]1C [Example I-790] | > 500 | > 10000 |
| CC(=O)N1c2ccc(-c3ccc(-c4ccccc4)cc3)cc2N(C(=O)COc2ccccc2)C[C@@H]1C [Example I-797] | > 500 | > 10000 |
| CC(=O)N1c2ccc(-c3c(C)noc3C)cc2N(C(=O)c2ccco2)C[C@@H]1C [Example I-816] | > 500 | > 10000 |
| COc1cc(F)ccc1-c1ccc2c(c1)N(C(=O)c1ccco1)C[C@H](C)N2C(C)=O [Example I-826] | > 500 | > 10000 |
| CC(=O)N1c2ccc(-c3ccccc3NS(C)(=O)=O)cc2N(C(=O)c2ccco2)C[C@@H]1C [Example I-827] | > 500 | > 10000 |

Other lines, results leading:

| IC50 (BRD4 BD2) [nM] | IC50 (BRD4 BD1) [nM] | SMILES |
| --- | --- | --- |
| > 500 | > 10000 | CC(=O)N1c2ccccc2N(C(=O)CC2CCN(S(C)(=O)=O)CC2)C[C@@H]1C [Example I-762] |
| > 500 | > 10000 | CC(=O)N1c2ccccc2N(C(=O)c2ccc(F)cn2)C[C@@H]1C [Example I-763] |
| > 500 | > 10000 | CC(=O)N1c2ccccc2N(C(=O)CN2CCCCCC2=O)C[C@@H]1C [Example I-764] |
| > 500 | > 10000 | CC(=O)N1c2ccccc2N(C(=O)CCN2CCCCCC2=O)C[C@@H]1C [Example I-765] |
| 50 to 500 | > 10000 | CC(=O)N1c2ccc(-c3ccc(S(C)(=O)=O)cc3)cc2N(C(=O)c2ccccn2)C[C@@H]1C [Example I-782] |
| 50 to 500 | 1000 to 10000 | CC(=O)N1c2ccc(-c3ccc(S(C)(=O)=O)cc3)cc2N(C(=O)c2cc3cc(Cl)ccc3[nH]2)CC1C (stereo not shown) [Example I-785] |
| 50 to 500 | 1000 to 10000 | CC(=O)N1c2ccc(-c3ccc(S(C)(=O)=O)cc3)cc2N(C(=O)c2cc3ccc(Cl)cc3[nH]2)CC1C (stereo not shown) [Example I-787] |
| < 50 | 1000 to 10000 | CC(=O)N1c2ccc(-c3cccc(C(=O)NC4CC4)c3)cc2N(C(=O)c2ccco2)C[C@@H]1C [Example I-802] |
| 50 to 500 | 1000 to 10000 | CC(=O)N1c2ccc(-c3ccc(-n4cccn4)cc3)cc2N(C(=O)c2ccco2)C[C@@H]1C [Example I-803] |
| 50 to 500 | 1000 to 10000 | CC(=O)N1c2ccc(-c3ccc(Cl)cc3)cc2N(C(=O)c2ccco2)C[C@@H]1C [Example I-805] |
| 50 to 500 | 1000 to 10000 | CC(=O)N1c2ccc(-c3ccc(OC(F)(F)F)cc3)cc2N(C(=O)c2ccco2)C[C@@H]1C [Example I-808] |
| < 50 | 1000 to 10000 | CC(=O)N1c2ccc(-c3ccc(C#N)cc3)cc2N(C(=O)c2ccco2)C[C@@H]1C [Example I-811] |
| < 50 | 1000 to 10000 | CC(=O)N1c2ccc(-c3cccc(C#N)c3)cc2N(C(=O)c2ccco2)C[C@@H]1C [Example I-812] |
| 50 to 500 | 1000 to 10000 | CC(=O)N1c2ccc(-c3ccc(Oc4ccccc4)cc3)cc2N(C(=O)c2ccco2)C[C@@H]1C [Example I-813] |
| < 50 | 1000 to 10000 | CC(=O)N1c2ccc(-c3ccc(-n4cccn4)c(F)c3)cc2N(C(=O)c2ccco2)C[C@@H]1C [Example I-814] |
| 50 to 500 | 1000 to 10000 | CC(=O)N1c2ccc(-c3ccc(C(F)(F)F)cc3)cc2N(C(=O)c2ccco2)C[C@@H]1C [Example I-815] |
| < 50 | 1000 to 10000 | CC(=O)N1c2ccc(-c3ccc(F)cc3)cc2N(C(=O)c2ccco2)C[C@@H]1C [Example I-818] |
| 50 to 500 | 1000 to 10000 | CC(=O)N1c2ccc(-c3cccnc3)cc2N(C(=O)c2ccco2)C[C@@H]1C [Example I-819] |
| < 50 | 1000 to 10000 | CC(=O)N1c2ccc(-c3ccncc3)cc2N(C(=O)c2ccco2)C[C@@H]1C [Example I-820] |
| 50 to 500 | > 10000 | CC(=O)N1c2ccc(-c3cncnc3)cc2N(C(=O)c2ccco2)C[C@@H]1C [Example I-821] |
| 50 to 500 | 1000 to 10000 | CC(=O)N1c2ccc(-c3cnc4ccccc4c3)cc2N(C(=O)c2ccco2)C[C@@H]1C [Example I-823] |
| 50 to 500 | 1000 to 10000 | COc1cc(-c2ccc3c(c2)N(C(=O)c2ccco2)C[C@H](C)N3C(C)=O)ccc1F [Example I-828] |
| < 50 | 1000 to 10000 | CC(=O)N1c2ccc(-c3ccc(F)c(C(=O)NC(C)C)c3)cc2N(C(=O)c2ccco2)C[C@@H]1C [Example I-829] |
| 50 to 500 | 1000 to 10000 | CC(=O)N1c2ccc(-c3cncc(F)c3)cc2N(C(=O)c2ccco2)C[C@@H]1C [Example I-830] |
| < 50 | 1000 to 10000 | CC(=O)N1c2ccc(-c3cnc(N(C)C)nc3)cc2N(C(=O)c2ccco2)C[C@@H]1C [Example I-831] |
| 50 to 500 | 1000 to 10000 | CC(=O)N1c2ccc(-c3cncc(Cl)c3)cc2N(C(=O)c2ccco2)C[C@@H]1C [Example I-832] |
